Assay results as given in publication PMC3446250 (2012).

Target: T1, GLIC (Gloeobacter violaceus, UniProt Q7NDN8, N194C)
T1 sequence (Q7NDN8 44-359 N194C): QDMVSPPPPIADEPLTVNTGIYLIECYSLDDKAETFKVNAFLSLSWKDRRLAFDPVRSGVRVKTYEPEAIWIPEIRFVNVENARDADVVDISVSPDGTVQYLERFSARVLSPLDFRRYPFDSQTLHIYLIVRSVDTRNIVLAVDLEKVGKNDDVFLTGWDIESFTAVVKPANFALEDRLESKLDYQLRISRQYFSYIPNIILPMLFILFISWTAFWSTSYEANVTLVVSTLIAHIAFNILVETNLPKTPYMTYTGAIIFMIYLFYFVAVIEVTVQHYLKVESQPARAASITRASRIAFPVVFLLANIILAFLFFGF
Assay: two-electrode voltage clamp in Xenopus oocytes at EC20
Format: cell-based

CNC1(c2ccccc2Cl)CCCCC1=O (stereo not shown) [ketamine]
IC50: 110 µM
